Assay results taken from ChEMBL document CHEMBL4610060, “Orally bioavailable amine-linked macrocyclic inhibitors of factor XIa” (Bioorg Med Chem Lett, 2020).

Assays:
Coagulation factor XI = Coagulation factor XI (Homo sapiens, UniProt P03951); test: Inhibition of recombinant human activated coagulation factor XI using pyro-Glu-Pro-Arg-pNA as substrate by spectrophotometry
[1] = Metabolic stability in human liver microsomes assessed as half life; assay type: ADME, Microsome
Plasma = test: Anticoagulant activity in human plasma assessed as EC1.5 of activated partial thromboplastin time by coagulometric analysis; assay type: functional
[2] = Permeability across apical to basolateral side in human Caco2 cells; assay type: ADME, cell-based; conditions: Caco-2, read-out: permeability

Coagulation factor XI, sequence (P03951 19-387 limits assumed): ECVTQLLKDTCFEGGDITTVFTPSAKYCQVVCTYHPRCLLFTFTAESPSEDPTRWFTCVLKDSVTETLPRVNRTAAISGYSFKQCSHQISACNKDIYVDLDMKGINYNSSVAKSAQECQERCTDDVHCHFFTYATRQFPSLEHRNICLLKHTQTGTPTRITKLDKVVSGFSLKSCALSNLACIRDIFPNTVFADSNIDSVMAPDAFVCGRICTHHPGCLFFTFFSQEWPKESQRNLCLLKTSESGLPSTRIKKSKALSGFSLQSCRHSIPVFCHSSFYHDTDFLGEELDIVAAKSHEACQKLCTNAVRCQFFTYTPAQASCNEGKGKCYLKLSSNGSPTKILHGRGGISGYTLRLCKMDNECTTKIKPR
Coagulation factor XI, sequence (P03951 388-625 limits assumed): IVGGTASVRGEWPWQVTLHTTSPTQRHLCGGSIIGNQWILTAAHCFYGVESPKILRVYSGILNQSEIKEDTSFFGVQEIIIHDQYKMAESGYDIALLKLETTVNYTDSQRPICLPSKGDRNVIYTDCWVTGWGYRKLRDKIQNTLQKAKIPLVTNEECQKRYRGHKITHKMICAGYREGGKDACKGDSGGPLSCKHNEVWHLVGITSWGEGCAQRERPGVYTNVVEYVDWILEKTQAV

| Ki (Coagulation factor XI) | half-life [1] | Papp A→B [2] | SMILES | EC1.5 (Plasma) |
| --- | --- | --- | --- | --- |
| 2 nM | 4 min |  | COC(=O)C[C@H]1CCCC[C@H](NC(=O)/C=C/c2cc(Cl)ccc2-n2cnnn2)c2nc(c[nH]2)-c2ccc(NC(=O)OC)cc2N1 | 1.1 µM |
| 12 nM | 3 min |  | O=C(/C=C/c1cc(Cl)ccc1-n1cnnn1)N[C@H]1C/C=C/CCC(=O)Nc2cc(F)ccc2-c2c[nH]c1n2 | 16 µM |
| 370 nM |  |  | COC(=O)Nc1ccc2c(c1)N[C@H](C(F)(F)F)CCCC[C@H](NC(=O)/C=C/c1cc(Cl)ccc1-n1cnnn1)c1nc-2c[nH]1 |  |
| 2.6 nM | 99 min |  | COC(=O)Nc1ccc2c(c1)N[C@@H](C(=O)O)CCCC[C@H](NC(=O)/C=C/c1cc(Cl)ccc1-n1cnnn1)c1cc-2ccn1 | 7.1 µM |
| 0.31 nM | 14 min |  | COC(=O)Nc1ccc2c(c1)N[C@@H](C(=O)N(C)C)CCCC[C@H](NC(=O)/C=C/c1cc(Cl)ccc1-n1cnnn1)c1nc-2c[nH]1 | 0.36 µM |
| 53 nM | 29 min |  | COC(=O)Nc1ccc2c(c1)N[C@@H](C(F)(F)F)CC/C=C/C[C@H](NC(=O)/C=C/c1cc(Cl)ccc1-n1cnnn1)c1nc-2c[nH]1 | >40 µM |
| 0.61 nM | 10 min |  | COC(=O)Nc1ccc2c(c1)N[C@@H](CO)CCCC[C@H](NC(=O)/C=C/c1cc(Cl)ccc1-n1cnnn1)c1nc-2c[nH]1 | 0.54 µM |
| 6 nM | 2 min |  | O=C(/C=C/c1cc(Cl)ccc1-n1cnnn1)N[C@H]1C/C=C/CCC(=O)Nc2ccc(F)cc2-c2c[nH]c1n2 | 2.5 µM |
| 245 nM | 6 min |  | COC(=O)c1ccc2c(c1)-c1c[nH]c(n1)[C@@H](NC(=O)/C=C/c1cc(Cl)ccc1-n1cnnn1)C/C=C/CCC(=O)N2 |  |
| 16 nM | 95 min |  | COC(=O)Nc1ccc2c(c1)N[C@@H](C(F)(F)F)CCCC[C@H](NC(=O)/C=C/c1cc(Cl)ccc1-n1cnnn1)c1cc-2ccn1 | 13 µM |
| 3.6 nM | 94 min |  | O=C(/C=C/c1cc(Cl)ccc1-n1cnnn1)N[C@H]1C/C=C/CCC(=O)Nc2ccc(C(=O)O)cc2-c2c[nH]c1n2 | 1.7 µM |
|  |  | < 1.5 ×10⁻⁶ cm/s | COC(=O)Nc1ccc2c(c1)NC(=O)CC/C=C/C[C@H](NC(=O)/C=C/c1cc(Cl)ccc1-n1cnnn1)c1nc-2c[nH]1 | 0.27 µM |
| 5.1 nM | 3 min |  | O=C(/C=C/c1cc(Cl)ccc1-n1cnnn1)N[C@H]1C/C=C/CCC(=O)Nc2ccccc2-c2c[nH]c1n2 | 2.9 µM |
| 24 nM | 8 min |  | COC(=O)Nc1ccc2c(c1)C[C@@H](C(=O)OC)CCCC[C@H](NC(=O)/C=C/c1cc(Cl)ccc1-n1cnnn1)c1nc-2c[nH]1 | 25 µM |
| 8.3 nM | 7 min |  | COC(=O)Nc1ccc2c(c1)N[C@@H](C)CCCC[C@H](NC(=O)/C=C/c1cc(Cl)ccc1-n1cnnn1)c1nc-2c[nH]1 | 5.2 µM |
| 16 nM | 6 min |  | COC(=O)Nc1ccc2c(c1)NCCCCC[C@H](NC(=O)/C=C/c1cc(Cl)ccc1-n1cnnn1)c1nc-2c[nH]1 | 6.2 µM |
| 1.3 nM | 25 min |  | COC(=O)Nc1ccc2c(c1)N[C@@H](C(F)F)CCCC[C@H](NC(=O)/C=C/c1cc(Cl)ccc1-n1cnnn1)c1nc-2c[nH]1 | 2 µM |
